{"source": "patent US20080070794A1", "about": "“Chemical sensors” (The Trustees of Princeton University, priority 2005, published 2008)", "key": {"[1]": {"molecular_target": "alpha A1", "conditions": "cited from earlier work"}, "[2]": {"molecular_target": "alpha A2", "conditions": "cited from earlier work"}, "[3]": {"molecular_target": "beta A2 (Homo sapiens, UniProt P07550)", "sequence (P07550 whole entry)": "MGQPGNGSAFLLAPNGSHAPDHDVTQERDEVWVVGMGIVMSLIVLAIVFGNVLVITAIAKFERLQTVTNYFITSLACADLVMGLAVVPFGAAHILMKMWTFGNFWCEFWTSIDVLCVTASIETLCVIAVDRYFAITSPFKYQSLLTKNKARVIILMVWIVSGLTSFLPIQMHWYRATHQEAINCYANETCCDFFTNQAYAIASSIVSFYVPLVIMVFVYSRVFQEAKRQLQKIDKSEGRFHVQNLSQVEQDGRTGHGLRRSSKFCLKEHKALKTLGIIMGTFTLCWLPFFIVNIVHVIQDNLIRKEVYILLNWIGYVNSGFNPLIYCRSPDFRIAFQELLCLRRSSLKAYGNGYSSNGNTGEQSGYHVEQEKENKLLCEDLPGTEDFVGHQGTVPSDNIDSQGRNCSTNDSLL", "conditions": "cited from earlier work"}, "[4]": {"molecular_target": "T1, 5HT-1a (Homo sapiens, UniProt P08908)", "T1 sequence (P08908 1-422)": "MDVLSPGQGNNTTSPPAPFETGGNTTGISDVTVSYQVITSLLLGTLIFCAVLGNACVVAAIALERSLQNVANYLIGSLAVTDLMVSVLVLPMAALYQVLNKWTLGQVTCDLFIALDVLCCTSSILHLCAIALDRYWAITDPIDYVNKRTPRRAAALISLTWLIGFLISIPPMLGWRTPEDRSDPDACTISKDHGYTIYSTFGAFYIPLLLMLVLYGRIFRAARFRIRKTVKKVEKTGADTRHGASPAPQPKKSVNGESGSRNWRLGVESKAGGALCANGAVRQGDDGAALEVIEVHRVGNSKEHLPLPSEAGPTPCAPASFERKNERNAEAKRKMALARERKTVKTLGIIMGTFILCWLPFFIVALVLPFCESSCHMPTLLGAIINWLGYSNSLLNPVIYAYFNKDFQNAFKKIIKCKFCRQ", "conditions": "cited from earlier work"}, "[5]": {"molecular_target": "5HT-1b (Homo sapiens, UniProt P28222)", "sequence (P28222 whole entry, species assumed)": "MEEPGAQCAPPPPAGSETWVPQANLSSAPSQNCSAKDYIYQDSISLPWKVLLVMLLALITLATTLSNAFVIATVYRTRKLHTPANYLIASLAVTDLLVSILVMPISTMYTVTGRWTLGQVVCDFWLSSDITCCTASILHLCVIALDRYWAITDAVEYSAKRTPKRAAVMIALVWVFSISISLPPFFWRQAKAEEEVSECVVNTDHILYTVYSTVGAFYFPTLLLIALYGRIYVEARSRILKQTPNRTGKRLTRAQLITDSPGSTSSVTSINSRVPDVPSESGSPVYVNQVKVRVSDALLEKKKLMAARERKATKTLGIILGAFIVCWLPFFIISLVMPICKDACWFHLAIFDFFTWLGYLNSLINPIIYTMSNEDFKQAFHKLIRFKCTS", "conditions": "cited from earlier work"}, "[6]": {"molecular_target": "5HT-2 (Homo sapiens, UniProt P28223)", "sequence (P28223 whole entry, species assumed)": "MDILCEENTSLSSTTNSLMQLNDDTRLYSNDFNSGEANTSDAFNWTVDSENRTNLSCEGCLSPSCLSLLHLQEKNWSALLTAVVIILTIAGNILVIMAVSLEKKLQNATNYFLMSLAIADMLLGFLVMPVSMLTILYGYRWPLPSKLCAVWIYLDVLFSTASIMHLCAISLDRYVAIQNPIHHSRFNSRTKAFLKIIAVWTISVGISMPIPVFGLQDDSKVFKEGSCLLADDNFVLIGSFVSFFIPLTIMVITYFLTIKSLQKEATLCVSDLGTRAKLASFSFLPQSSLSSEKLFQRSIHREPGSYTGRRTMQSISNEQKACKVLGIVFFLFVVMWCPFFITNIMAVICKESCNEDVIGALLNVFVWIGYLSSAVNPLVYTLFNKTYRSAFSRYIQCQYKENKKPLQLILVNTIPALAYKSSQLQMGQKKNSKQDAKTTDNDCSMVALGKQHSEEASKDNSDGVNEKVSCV", "conditions": "cited from earlier work"}, "[7]": {"molecular_target": "D1 (Homo sapiens, UniProt P21728)", "sequence (P21728 whole entry)": "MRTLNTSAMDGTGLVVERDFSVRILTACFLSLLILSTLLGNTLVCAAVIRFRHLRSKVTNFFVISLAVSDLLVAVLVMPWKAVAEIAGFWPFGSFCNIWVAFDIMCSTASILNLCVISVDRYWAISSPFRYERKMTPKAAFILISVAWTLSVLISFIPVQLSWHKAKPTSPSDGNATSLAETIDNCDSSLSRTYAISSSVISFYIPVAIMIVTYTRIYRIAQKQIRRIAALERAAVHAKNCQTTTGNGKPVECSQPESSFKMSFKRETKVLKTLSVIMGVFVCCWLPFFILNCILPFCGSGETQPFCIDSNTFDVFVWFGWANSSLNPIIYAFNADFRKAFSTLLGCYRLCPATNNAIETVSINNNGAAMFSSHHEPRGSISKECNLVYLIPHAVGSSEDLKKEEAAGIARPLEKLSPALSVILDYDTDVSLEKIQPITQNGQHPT", "conditions": "cited from earlier work"}, "[8]": {"molecular_target": "D2 (Homo sapiens, UniProt P14416)", "sequence (P14416 whole entry)": "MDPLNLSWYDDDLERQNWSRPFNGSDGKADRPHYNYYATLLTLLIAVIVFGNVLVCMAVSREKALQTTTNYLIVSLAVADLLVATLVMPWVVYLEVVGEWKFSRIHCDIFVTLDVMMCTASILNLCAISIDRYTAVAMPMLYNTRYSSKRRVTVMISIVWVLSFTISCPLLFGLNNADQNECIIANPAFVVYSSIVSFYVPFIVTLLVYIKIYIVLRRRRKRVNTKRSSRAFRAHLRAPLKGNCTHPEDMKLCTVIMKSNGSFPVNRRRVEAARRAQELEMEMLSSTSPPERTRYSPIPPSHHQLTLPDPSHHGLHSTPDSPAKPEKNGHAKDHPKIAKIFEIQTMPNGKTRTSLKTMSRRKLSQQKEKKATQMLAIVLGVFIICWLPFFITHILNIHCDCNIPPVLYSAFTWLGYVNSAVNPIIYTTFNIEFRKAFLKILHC", "conditions": "cited from earlier work"}, "[9]": {"molecular_target": "Muscarinic", "conditions": "cited from earlier work"}, "[10]": {"molecular_target": "Melatonin", "conditions": "cited from earlier work"}, "[11]": {"tested_on": "Histamine", "conditions": "cited from earlier work"}, "[12]": {"molecular_target": "T2, UDP-glucose receptor 2211 (Homo sapiens, UniProt Q15391, A193V/A252V/A98V/F243I/K54E)", "T2 construct": "The entire UDPG receptor gene was mutagenized via error-prone mutagenesis; expressed in transfected cells; host or cells: Saccharomyces cerevisiae CY10560 (growth) / CY10981 with Cp1021 FUS1-LacZ (β-galactosidase)", "T2 sequence (Q15391 1-338 K54E/A98V/A193V/F243I/A252V)": "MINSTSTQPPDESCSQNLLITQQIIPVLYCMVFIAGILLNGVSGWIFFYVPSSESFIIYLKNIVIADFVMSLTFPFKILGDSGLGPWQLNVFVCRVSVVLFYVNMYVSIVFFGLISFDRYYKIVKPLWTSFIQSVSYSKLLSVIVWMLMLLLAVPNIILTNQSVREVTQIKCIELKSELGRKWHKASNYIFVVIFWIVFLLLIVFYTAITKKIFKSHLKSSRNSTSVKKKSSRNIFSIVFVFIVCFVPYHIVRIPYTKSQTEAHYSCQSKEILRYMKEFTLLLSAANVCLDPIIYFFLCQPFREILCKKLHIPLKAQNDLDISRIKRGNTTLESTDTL", "assay": "β-galactosidase reporter assay in yeast, mutant 2211 receptor", "type": "cell-based", "method": "(§1) Strains and plasmids. Mutagenesis and selection were performed in yeast strain […] can1-100 […] […] […] ura3-52). β-Galactosidase assays were performed using yeast strain CY10981 (PFUS1-HIS3 can1-100 […] […] […] ura3-52) carrying plasmid Cp1021 (PFUS1-LacZ 2 μm URA3)."}, "[13]": {"molecular_target": "T3, UDPG receptor mutant H-20 (Homo sapiens, UniProt Q15391, A193V/A252V/A98V/F243I/I251T/K54E/R253K)", "T3 construct": "The entire UDPG receptor gene was mutagenized via error-prone mutagenesis; expressed in transfected cells; host or cells: Saccharomyces cerevisiae CY10560 (growth) / CY10981 with Cp1021 FUS1-LacZ (β-galactosidase)", "T3 sequence (Q15391 1-338 K54E/A98V/A193V/F243I/I251T/A252V/R253K)": "T2 sequence (Q15391 1-338 K54E/A98V/A193V/F243I/A252V) with I251T, R253K", "assay": "β-galactosidase reporter assay in yeast, mutant H-20 receptor", "type": "cell-based", "method": "as §1"}, "[14]": {"molecular_target": "T4, UDPG receptor mutant K-3 (Homo sapiens, UniProt Q15391, A193V/A252V/A98V/E278G/F243I/I251T/K54E/R253K)", "T4 construct": "The entire UDPG receptor gene was mutagenized via error-prone mutagenesis; expressed in transfected cells; host or cells: Saccharomyces cerevisiae CY10560 (growth) / CY10981 with Cp1021 FUS1-LacZ (β-galactosidase)", "T4 sequence (Q15391 1-338 K54E/A98V/A193V/F243I/I251T/A252V/R253K/E278G)": "T2 sequence (Q15391 1-338 K54E/A98V/A193V/F243I/A252V) with I251T, R253K, E278G", "assay": "β-galactosidase reporter assay in yeast, mutant K-3 receptor", "type": "cell-based", "method": "as §1"}, "[15]": {"molecular_target": "T5, wild type UDPG receptor (P2Y14) (Homo sapiens, UniProt Q15391)", "T5 construct": "The entire UDPG receptor gene was mutagenized via error-prone mutagenesis; expressed in transfected cells; host or cells: Saccharomyces cerevisiae CY10560 (growth) / CY10981 with Cp1021 FUS1-LacZ (β-galactosidase)", "T5 sequence (Q15391 1-338)": "T2 sequence (Q15391 1-338 K54E/A98V/A193V/F243I/A252V) with E54K, V98A, V193A, I243F, V252A", "assay": "β-galactosidase reporter assay in yeast, wild type receptor", "type": "cell-based"}, "[16]": {"molecular_target": "T6, K-3 mutant (Homo sapiens, UniProt Q15391, A193V/A252V/A98V/E278G/F243I/I251T/K54E/R253K)", "T6 construct": "The entire UDPG receptor gene was mutagenized via error-prone mutagenesis; expressed in transfected cells; host or cells: Saccharomyces cerevisiae CY10560 (growth) / CY10981 with Cp1021 FUS1-LacZ (β-galactosidase)", "T6 sequence (Q15391 1-338 K54E/A98V/A193V/F243I/I251T/A252V/R253K/E278G)": "T2 sequence (Q15391 1-338 K54E/A98V/A193V/F243I/A252V) with I251T, R253K, E278G", "assay": "Yeast growth assay, mutant K-3 receptor", "type": "cell-based", "conditions": "relative to parent H-20", "text": "Targeted mutagenesis and selection of functional receptor mutants. To generate targeted mutants, oligonucleotides with randomized sequences, corresponding to the codons to be mutagenized, were utilized to generate overlapping PCR products. The method and many applicable variations thereof are known in the art.\nThe HTVK mutant, designated H-20, was selected as the template for mutagenesis of three additional motifs, ‘AxxFY’ and ‘NMY’ in TM3, and ‘KExT’ in TM7."}, "[17]": {"molecular_target": "T7, wild type human UDPG receptor (Homo sapiens, UniProt Q15391)", "T7 construct": "The entire UDPG receptor gene was mutagenized via error-prone mutagenesis; expressed in transfected cells; host or cells: Saccharomyces cerevisiae CY10560 (growth) / CY10981 with Cp1021 FUS1-LacZ (β-galactosidase)", "T7 sequence (Q15391 1-338)": "T2 sequence (Q15391 1-338 K54E/A98V/A193V/F243I/A252V) with E54K, V98A, V193A, I243F, V252A", "assay": "Yeast growth on selective medium, strain CY10560 expressing wild type receptor", "type": "cell-based", "conditions": "0.3 μM ligand", "text": "Mutagenesis and selection of sensitized receptor mutants. […] The reporter gene, in this context, simply provided a means of confirming that yeast cells intended to be recipients of the GPCR of interest did in fact accept the GPCR. Yeast cells that have incorporated a foreign gene are referred to as “transformants.”\nGenetic selection of sensitized receptor mutants."}}, "note": "Where a chain is given by its changes, count along the chain named. “Also recorded” adds a separate entry of the source."}
{"molecule": "CN1CCc2cccc3c2[C@H]1Cc1ccc(O)c(O)c1-3", "note": "[apomorphine]", "values": [{"measurement": "Kd", "setting": "[1]", "result": 2.3, "unit": "µM"}, {"measurement": "x (efficacy factor) alpha A1", "setting": "[1]", "result": 1.0}, {"measurement": "Kd", "setting": "[2]", "result": 1, "unit": "µM"}, {"measurement": "x (efficacy factor) alpha A2", "setting": "[2]", "result": 1.0}, {"measurement": "x (efficacy factor) beta A2", "setting": "[3]", "result": 1.0}, {"measurement": "x (efficacy factor) 5HT-1a", "setting": "[4]", "result": 1.0}, {"measurement": "Kd", "setting": "[5]", "result": 100, "unit": "µM"}, {"measurement": "x (efficacy factor) 5HT-1b", "setting": "[5]", "result": 1.0}, {"measurement": "x (efficacy factor) 5HT-2", "setting": "[6]", "result": 1.0}, {"measurement": "x (efficacy factor) D1", "setting": "[7]", "result": 1.0}, {"measurement": "x (efficacy factor) D2", "setting": "[8]", "result": 1.0}, {"measurement": "Kd", "setting": "[9]", "result": 10, "unit": "µM"}, {"measurement": "x (efficacy factor) Muscarinic", "setting": "[9]", "result": 1.0}, {"measurement": "Kd", "setting": "[10]", "result": 100, "unit": "µM"}, {"measurement": "x (efficacy factor) Melatonin", "setting": "[10]", "result": 1.0}, {"measurement": "x (efficacy factor) Histamine", "setting": "[11]", "result": 1.0}]}
{"molecule": "O=c1ccn([C@@H]2O[C@H](COP(=O)(O)OP(=O)(O)O)[C@@H](O)[C@H]2O)c(=O)[nH]1", "note": "[UDP, uridine diphosphate]", "values": [{"measurement": "agonist/antagonist character at 2211 receptor", "setting": "[12]", "result": "weakly activated; also recorded: competitive inhibitor; also recorded: primarily as an antagonist"}, {"measurement": "Slope of the linear fit, Schild regression", "setting": "[12]; UDP antagonism of UDP-glucose agonist activity, FIG. 2 Panel B", "result": "~0.8"}, {"measurement": "agonist/antagonist character at H-20 receptor", "setting": "[13]", "result": "increasingly strong partial agonist"}, {"measurement": "agonist/antagonist character at K-3 receptor", "setting": "[14]", "result": "at least a partial agonist; also recorded: increasingly strong partial agonist"}, {"measurement": "agonist/antagonist character at wild type receptor", "setting": "[15]", "result": "primarily as an antagonist"}, {"measurement": "growth in response to ligand", "setting": "[16]", "result": "grew in the presence"}]}
{"molecule": "CC(=O)N[C@H]1[C@@H](OP(=O)(O)OP(=O)(O)OC[C@H]2O[C@@H](n3ccc(=O)[nH]c3=O)[C@H](O)[C@@H]2O)O[C@H](CO)[C@@H](O)[C@@H]1O", "note": "[UDP-glcNAc, UDP-N-acetylglucosamine]", "values": [{"measurement": "growth on selective medium", "setting": "[17]", "result": "fails to grow"}]}
{"molecule": "CC(=O)N[C@H]1[C@@H](OP(=O)(O)OP(=O)(O)OC[C@H]2O[C@@H](n3ccc(=O)[nH]c3=O)[C@H](O)[C@@H]2O)O[C@H](CO)[C@H](O)[C@@H]1O", "note": "[UDP-galNAc, UDP-N-acetylgaltactosamine]", "values": [{"measurement": "growth on selective medium", "setting": "[17]", "result": "fails to grow"}]}
